Some test systems named below: UACC-62; K562; RPMI-8226; SF-295; IGROV-1; M14; MDA-N; 786-0; TK-10; NCI-H522; HCT-116; SN12C; CAKI-1; NCI/ADR-RES; A498; BT-549; CCRF-CEM; SK-MEL-2; HOP-62; LOX IMVI.
Common to all, as to experiment: inhibition of tumour cell growth, NCI panel, 48 h

Consider eight molecules from ChEMBL document CHEMBL1201862, “PubChem BioAssay data set” (2004).

SMILES strings stand for the structures.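 All cell lines were grown in 96-well plates and treated with compound for 48 hours. GI50 marks 50% less growth.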 Calls of active or inactive are those of the source. Cut-off read from the data, not from the text of the source: active = GI50 up to about 1.1 µM and inactive = higher. Where a SMILES comes first, the peptide text is derived from it. The star is where a group is joined. Boc = CC(C)(C)OC(=O)*; OBn = c1ccc(CO*)cc1

In the case of `O=c1[nH]c(-n2[nH]c3c(c2=O)CCCC3)nc(O)c1-c1ccccc1`, the GI50 with UACC-62, in the assay on K562, in the assay with RPMI-8226, with SF-295, with IGROV-1 and with M14 was > 100 µM (inactive) throughout. Further, the GI50 in the assay on MDA-N, in the assay with 786-0, in the assay on TK-10, in the assay with NCI-H522, in the assay on HCT-116 and in the assay with SN12C was > 100 µM (inactive) each time. The GI50 in the assay on CAKI-1, with NCI/ADR-RES, in the assay on A498, in the assay on BT-549, with CCRF-CEM and in the assay on SK-MEL-2 was > 100 µM (inactive) throughout.

As to `O=C(CCc1cccc(O)c1)NCCc1cccc(O)c1`, the GI50 in the assay on UACC-62, in the assay on K562, in the assay on HOP-62, in the assay on SF-295, in the assay on IGROV-1 and in the assay on M14 was > 100 µM (inactive) in each case. Besides, the GI50 in the assay with MDA-N, in the assay with 786-0, in the assay on TK-10, in the assay on NCI-H522, in the assay on HCT-116 and with SN12C was > 100 µM (inactive) each time. Further, the GI50 with CAKI-1, in the assay on NCI/ADR-RES, with A498, in the assay on LOX IMVI, with BT-549 and in the assay with CCRF-CEM was > 100 µM (inactive) throughout. In addition, in the assay with SK-MEL-2, the GI50 was > 100 µM (inactive).

Take `Cc1cc(C)c2c(=O)n(CC(O)CN3CCN(CCOCCO)CC3)sc2n1` (configuration not stated): the GI50 in the assay on UACC-62 was 18.7 µM (inactive); in the assay with K562, 37.3 µM (inactive); in the assay with HOP-62 it was 28.4 µM (inactive); in the assay on SF-295, > 100 µM (inactive); in the assay with IGROV-1, 43.9 µM (inactive); in the assay on M14, 17.8 µM (inactive). For the same molecule, the GI50 was 15.6 µM (inactive) with MDA-N; 16.9 µM (inactive) in the assay on 786-0; 17.5 µM (inactive) in the assay with TK-10; 14.6 µM (inactive) in the assay on NCI-H522; 17.1 µM (inactive) with HCT-116; 18.4 µM (inactive) with SN12C. Besides, the GI50 is > 100 µM (inactive) in the assay on CAKI-1; > 100 µM (inactive) in the assay with NCI/ADR-RES; 21.9 µM (inactive) in the assay on A498; 18.8 µM (inactive) in the assay on LOX IMVI; 16.6 µM (inactive) in the assay with BT-549; 11.4 µM (inactive) with CCRF-CEM. The GI50 with SK-MEL-2 was 19.7 µM (inactive).

As for `O=C(/C=C1/Nc2ccc([N+](=O)[O-])cc2N/C1=C/C(=O)c1ccccc1)c1ccccc1`, the GI50 in the assay on UACC-62 was 12.6 µM (inactive); with K562, 32.8 µM (inactive); in the assay with HOP-62, 12.1 µM (inactive); with SF-295 it was 15 µM (inactive); with IGROV-1, 25.3 µM (inactive); in the assay on M14, 86.9 µM (inactive). Besides, the GI50 in the assay with MDA-N is > 100 µM (inactive); in the assay on 786-0, 18.3 µM (inactive); in the assay with TK-10, 24.9 µM (inactive); with NCI-H522 it was 13.3 µM (inactive); in the assay with HCT-116, 20.7 µM (inactive); with SN12C, 40.8 µM (inactive). Moreover, the GI50 in the assay on CAKI-1 was 26.7 µM (inactive); in the assay on NCI/ADR-RES it was 18.3 µM (inactive); with A498, 21.4 µM (inactive); in the assay on BT-549 it was 18.5 µM (inactive); in the assay with CCRF-CEM it was 10.6 µM (inactive); with SK-MEL-2, 0.385 µM (active).

With `CC1(C)C2CCC(N)(C2)C1O` (configuration not stated), the GI50 in the assay with UACC-62, in the assay on K562, in the assay on HOP-62, with RPMI-8226, in the assay on SF-295 and with IGROV-1 was > 100 µM (inactive) each time. Besides, the GI50 in the assay on M14, in the assay with MDA-N, in the assay with 786-0, in the assay on TK-10, in the assay on HCT-116 and with SN12C was > 100 µM (inactive) each time. In addition, the GI50 in the assay on CAKI-1, in the assay on NCI/ADR-RES, in the assay with A498, in the assay with LOX IMVI, in the assay on BT-549 and with CCRF-CEM was > 100 µM (inactive) in each case. Further, in the assay with SK-MEL-2, the GI50 was > 100 µM (inactive).

Take `CC(C(N)=O)N(C)C(=O)c1cnc2ccccc2c1` (configuration not stated): the GI50 in the assay on UACC-62 was > 100 µM (inactive); in the assay with K562, 17 µM (inactive); with RPMI-8226 it was > 100 µM (inactive); with SF-295, > 100 µM (inactive); in the assay on IGROV-1, > 100 µM (inactive); in the assay on M14 it was > 100 µM (inactive). Besides, the GI50 in the assay with MDA-N, with 786-0, in the assay with TK-10, in the assay with NCI-H522, in the assay with HCT-116 and in the assay with SN12C was > 100 µM (inactive) each time. The GI50 in the assay on CAKI-1, with NCI/ADR-RES, with A498, with BT-549, with CCRF-CEM and in the assay on SK-MEL-2 was > 100 µM (inactive) in each case.

With `CC(C)CC(NC(=O)OC(C)(C)C)C(=O)N1CCCC1C(=O)OCc1ccccc1` (stereo not drawn) (Boc-Leu-Pro-OBn; configuration not given here), the GI50 with UACC-62 is > 100 µM (inactive); in the assay on K562, 35.2 µM (inactive); with SF-295 it was > 100 µM (inactive); in the assay with IGROV-1 it was > 100 µM (inactive); in the assay on M14, 99.3 µM (inactive); with MDA-N, > 100 µM (inactive). The GI50 in the assay with 786-0, with TK-10, in the assay with NCI-H522, with HCT-116, in the assay with SN12C and in the assay on CAKI-1 was > 100 µM (inactive) each time. For the same molecule, the GI50 in the assay on NCI/ADR-RES is > 100 µM (inactive); in the assay on A498, > 100 µM (inactive); with LOX IMVI it was 40.4 µM (inactive); in the assay with BT-549, > 100 µM (inactive); in the assay with SK-MEL-2, > 100 µM (inactive).

In the case of `C1COCCN1.CN(C)c1ccc(-c2c(C#N)c(N)nc(S)c2C#N)cc1`, the GI50 in the assay with UACC-62 was 35 µM (inactive); in the assay on K562, > 100 µM (inactive); in the assay with HOP-62, 87.3 µM (inactive); with SF-295 it was 61 µM (inactive); in the assay with IGROV-1, 40.1 µM (inactive); with M14 it was 34 µM (inactive). The GI50 in the assay on MDA-N is 54.1 µM (inactive); in the assay with 786-0 it was > 100 µM (inactive); in the assay with TK-10, > 100 µM (inactive); in the assay with NCI-H522, 29 µM (inactive); with HCT-116 it was > 100 µM (inactive); with SN12C, 66.2 µM (inactive). In addition, the GI50 was 43.9 µM (inactive) in the assay with CAKI-1; > 100 µM (inactive) with NCI/ADR-RES; 24.9 µM (inactive) in the assay with A498; 80.2 µM (inactive) in the assay on LOX IMVI; 83 µM (inactive) in the assay on BT-549; 38.5 µM (inactive) in the assay on CCRF-CEM. The GI50 in the assay on SK-MEL-2 was 34.4 µM (inactive).
